Active and inactive are the calls of the source.
Assays:
[1] = insulin promoter down-regulators in MIN6 cells, imaging, high-content screening, mouse beta cells (AID 1628); type: functional
[2] = cytotoxicity in MIN6 insulinoma cells, dose response, cytotoxicity control, cell-based, mouse insulinoma (AID 2122); type: functional;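 also: confirmatory high-throughput counterscreen run to flag cytotoxic compounds; mouse MIN-6 beta cells carrying an insulin promoter eGFP reporter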
[3] = biological target: Potassium voltage-gated channel subfamily KQT member 2 (Rattus norvegicus, UniProt O88943); assay: KCNQ2 channel activators, analog series, SAR follow-up, automated patch clamp, KCNQ2-CHO cells (AID 493113); type: functional
Sequence of Potassium voltage-gated channel subfamily KQT member 2 (O88943 whole entry): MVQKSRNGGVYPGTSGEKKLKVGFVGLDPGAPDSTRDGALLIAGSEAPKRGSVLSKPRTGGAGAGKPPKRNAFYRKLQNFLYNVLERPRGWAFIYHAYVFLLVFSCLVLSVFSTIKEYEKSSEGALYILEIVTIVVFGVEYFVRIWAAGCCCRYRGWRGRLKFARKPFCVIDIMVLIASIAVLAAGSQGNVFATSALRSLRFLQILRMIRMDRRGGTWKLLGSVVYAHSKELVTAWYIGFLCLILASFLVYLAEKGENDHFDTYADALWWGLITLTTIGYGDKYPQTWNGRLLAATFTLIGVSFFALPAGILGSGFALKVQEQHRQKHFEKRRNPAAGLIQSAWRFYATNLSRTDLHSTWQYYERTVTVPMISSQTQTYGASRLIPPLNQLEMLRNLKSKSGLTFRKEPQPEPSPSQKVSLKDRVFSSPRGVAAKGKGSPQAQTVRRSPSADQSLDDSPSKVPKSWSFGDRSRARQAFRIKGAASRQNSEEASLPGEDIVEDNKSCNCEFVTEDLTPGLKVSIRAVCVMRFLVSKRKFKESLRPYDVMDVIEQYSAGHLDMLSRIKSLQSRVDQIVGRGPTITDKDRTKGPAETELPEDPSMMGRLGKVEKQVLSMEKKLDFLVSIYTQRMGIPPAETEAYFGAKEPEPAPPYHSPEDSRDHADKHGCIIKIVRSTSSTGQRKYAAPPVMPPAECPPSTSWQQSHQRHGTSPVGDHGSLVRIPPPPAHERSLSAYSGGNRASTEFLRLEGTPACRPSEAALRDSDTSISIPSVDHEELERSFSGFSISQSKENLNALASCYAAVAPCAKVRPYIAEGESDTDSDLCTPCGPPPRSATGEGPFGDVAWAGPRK

SUMO-activating enzyme [4] = biological target: T1, SUMO-activating enzyme (Homo sapiens, UniProt Q9UBT2); assay: SUMOylation inhibitor hit validation, confirmation, SUMOylation inhibitor project, biochemical, AlphaScreen (AID 2018); type: functional
T1 sequence (Q9UBE0 whole entry): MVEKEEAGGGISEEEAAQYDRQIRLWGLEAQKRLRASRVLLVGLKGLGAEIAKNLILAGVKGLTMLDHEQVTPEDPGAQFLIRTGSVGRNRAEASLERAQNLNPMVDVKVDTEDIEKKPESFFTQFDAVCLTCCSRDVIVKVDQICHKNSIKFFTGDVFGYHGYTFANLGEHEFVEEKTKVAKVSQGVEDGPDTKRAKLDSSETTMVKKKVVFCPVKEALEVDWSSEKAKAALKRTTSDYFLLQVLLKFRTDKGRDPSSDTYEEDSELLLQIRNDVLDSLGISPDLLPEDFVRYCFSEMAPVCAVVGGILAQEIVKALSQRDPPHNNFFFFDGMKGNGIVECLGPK
T1 sequence (Q9UBT2 whole entry): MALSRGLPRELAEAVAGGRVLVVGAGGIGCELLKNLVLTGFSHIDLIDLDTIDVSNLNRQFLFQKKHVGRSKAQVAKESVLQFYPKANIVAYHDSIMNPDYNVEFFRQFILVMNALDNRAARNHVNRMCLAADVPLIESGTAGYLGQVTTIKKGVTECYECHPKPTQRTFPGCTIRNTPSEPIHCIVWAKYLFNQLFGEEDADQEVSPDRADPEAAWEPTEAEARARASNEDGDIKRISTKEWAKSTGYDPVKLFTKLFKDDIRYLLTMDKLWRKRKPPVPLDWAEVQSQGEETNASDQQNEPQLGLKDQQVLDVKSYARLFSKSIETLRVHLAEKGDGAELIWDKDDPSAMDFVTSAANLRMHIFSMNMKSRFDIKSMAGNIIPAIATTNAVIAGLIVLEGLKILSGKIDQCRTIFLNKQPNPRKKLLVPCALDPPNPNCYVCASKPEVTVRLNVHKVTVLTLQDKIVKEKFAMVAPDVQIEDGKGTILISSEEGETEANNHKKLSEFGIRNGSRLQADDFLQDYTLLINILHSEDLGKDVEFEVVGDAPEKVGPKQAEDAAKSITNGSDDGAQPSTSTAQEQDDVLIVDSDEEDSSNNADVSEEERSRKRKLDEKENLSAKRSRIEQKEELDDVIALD

Aminopeptidase N = biological target: T2, Aminopeptidase N (Plasmodium falciparum FcB1/Columbia, UniProt O96935); assay: P. falciparum M1AAP inhibitors, biochemical, fluorogenic H-Leu-NHMec substrate, 1536-well (AID 1445); parameters: species or system Plasmodium falciparum 3D7, 3D7
T2 sequence (O96935 whole entry): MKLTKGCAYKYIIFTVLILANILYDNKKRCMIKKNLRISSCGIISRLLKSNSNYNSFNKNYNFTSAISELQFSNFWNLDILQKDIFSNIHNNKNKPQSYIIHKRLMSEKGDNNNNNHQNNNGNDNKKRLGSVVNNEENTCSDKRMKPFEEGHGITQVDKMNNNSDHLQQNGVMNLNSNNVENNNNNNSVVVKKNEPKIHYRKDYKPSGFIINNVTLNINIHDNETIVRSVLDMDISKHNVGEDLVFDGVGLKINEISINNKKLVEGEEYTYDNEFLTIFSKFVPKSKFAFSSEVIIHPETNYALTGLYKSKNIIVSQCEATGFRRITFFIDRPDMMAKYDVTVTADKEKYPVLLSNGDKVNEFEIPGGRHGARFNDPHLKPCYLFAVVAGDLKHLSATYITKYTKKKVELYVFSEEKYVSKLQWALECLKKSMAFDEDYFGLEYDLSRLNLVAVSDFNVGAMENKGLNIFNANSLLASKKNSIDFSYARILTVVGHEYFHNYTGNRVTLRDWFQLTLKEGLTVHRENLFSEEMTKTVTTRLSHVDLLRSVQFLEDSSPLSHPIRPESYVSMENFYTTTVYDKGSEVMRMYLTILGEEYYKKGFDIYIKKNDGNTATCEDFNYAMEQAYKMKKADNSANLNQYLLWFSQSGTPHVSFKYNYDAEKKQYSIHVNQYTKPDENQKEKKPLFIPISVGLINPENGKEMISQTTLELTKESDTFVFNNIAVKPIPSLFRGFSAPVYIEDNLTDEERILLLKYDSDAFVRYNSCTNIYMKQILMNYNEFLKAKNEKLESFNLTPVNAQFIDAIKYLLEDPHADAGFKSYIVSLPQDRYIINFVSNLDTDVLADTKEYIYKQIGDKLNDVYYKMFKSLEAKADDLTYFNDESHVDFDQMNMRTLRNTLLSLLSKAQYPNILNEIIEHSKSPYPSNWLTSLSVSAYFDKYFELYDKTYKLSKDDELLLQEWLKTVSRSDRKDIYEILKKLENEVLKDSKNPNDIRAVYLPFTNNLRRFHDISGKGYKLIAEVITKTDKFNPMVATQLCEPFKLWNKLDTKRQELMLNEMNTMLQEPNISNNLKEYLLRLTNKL

Genome polyprotein = Genome polyprotein (dengue virus type 2, UniProt P29990); assay: Dengue-2 NS5 methyltransferase inhibitors, primary screen, biochemical, confirmation dose response (AID 588689); type: functional
Sequence of Genome polyprotein (P29990 2492-3391 limits assumed): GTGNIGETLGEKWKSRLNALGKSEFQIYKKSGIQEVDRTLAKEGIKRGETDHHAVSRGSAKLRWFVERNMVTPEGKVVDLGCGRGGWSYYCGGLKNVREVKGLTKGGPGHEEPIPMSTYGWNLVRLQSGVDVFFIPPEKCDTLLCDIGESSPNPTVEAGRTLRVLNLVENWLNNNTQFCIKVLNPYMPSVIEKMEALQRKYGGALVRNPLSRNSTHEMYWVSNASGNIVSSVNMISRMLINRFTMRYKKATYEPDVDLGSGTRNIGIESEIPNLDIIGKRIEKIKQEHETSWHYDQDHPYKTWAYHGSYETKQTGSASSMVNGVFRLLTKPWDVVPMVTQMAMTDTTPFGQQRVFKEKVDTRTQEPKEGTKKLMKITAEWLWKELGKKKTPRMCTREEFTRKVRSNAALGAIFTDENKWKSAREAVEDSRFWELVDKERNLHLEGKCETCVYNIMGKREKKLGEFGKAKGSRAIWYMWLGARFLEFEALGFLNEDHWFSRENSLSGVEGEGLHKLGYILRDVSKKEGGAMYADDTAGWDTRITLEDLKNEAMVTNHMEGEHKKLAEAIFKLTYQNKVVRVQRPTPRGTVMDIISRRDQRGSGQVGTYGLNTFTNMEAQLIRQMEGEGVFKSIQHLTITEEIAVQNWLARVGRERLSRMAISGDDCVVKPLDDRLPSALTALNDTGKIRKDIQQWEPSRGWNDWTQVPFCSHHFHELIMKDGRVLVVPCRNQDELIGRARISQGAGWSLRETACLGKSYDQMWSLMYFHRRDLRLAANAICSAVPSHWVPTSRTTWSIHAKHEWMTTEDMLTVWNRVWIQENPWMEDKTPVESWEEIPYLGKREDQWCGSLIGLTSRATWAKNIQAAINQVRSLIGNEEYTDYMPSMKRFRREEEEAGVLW

Aspartyl aminopeptidase = biological target: T3, Aspartyl aminopeptidase (Plasmodium falciparum 3D7, UniProt Q8I2J3); assay: Counterscreen for inhibitors of M1 and M17 aminopeptidases: QFRET-based biochemical high throughput dose response assay for inhibitors of the Plasmodium falciparum M18 Aspartyl Aminopeptidase (PFM18AAP). [Related PubChem assays: 1619 (Screening assay (M17LAP inhibitors).), 1445 (Screening assay (M1AAP inhibitors).)]
T3 sequence (Q8I2J3 whole entry): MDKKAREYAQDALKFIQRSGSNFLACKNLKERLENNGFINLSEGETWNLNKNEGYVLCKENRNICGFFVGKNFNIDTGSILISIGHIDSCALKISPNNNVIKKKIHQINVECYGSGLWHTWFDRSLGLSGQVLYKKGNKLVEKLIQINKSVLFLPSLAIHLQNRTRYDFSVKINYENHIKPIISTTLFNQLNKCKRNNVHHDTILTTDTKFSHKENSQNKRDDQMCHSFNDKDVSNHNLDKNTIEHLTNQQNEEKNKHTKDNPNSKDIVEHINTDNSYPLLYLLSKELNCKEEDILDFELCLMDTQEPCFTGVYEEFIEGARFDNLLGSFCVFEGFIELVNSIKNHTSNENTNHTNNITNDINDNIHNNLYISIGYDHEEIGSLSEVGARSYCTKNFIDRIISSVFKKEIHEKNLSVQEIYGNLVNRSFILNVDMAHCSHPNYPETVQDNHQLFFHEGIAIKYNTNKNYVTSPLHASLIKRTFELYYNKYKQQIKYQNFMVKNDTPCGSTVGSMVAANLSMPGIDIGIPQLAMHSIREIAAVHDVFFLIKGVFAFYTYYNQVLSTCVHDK

Procathepsin L = Procathepsin L (Homo sapiens, UniProt P07711); assay: cathepsin L inhibitors, dose response, counter-screen for M1/M17 aminopeptidase inhibitor project, biochemical, QFRET, 1536-well (AID 2214)
Sequence of Procathepsin L (P07711 whole entry): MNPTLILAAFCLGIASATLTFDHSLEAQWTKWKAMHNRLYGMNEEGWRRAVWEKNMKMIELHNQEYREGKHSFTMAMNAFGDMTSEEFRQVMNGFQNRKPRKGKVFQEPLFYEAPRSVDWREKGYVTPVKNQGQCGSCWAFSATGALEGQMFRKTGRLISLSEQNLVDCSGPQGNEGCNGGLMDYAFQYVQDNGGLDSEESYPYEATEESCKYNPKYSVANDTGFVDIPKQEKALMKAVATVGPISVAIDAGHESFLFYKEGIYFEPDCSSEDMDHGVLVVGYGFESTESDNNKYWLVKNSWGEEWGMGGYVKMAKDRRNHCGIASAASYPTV

SUMO-activating enzyme [5] = biological target: T1, SUMO-activating enzyme; assay: inhibitors of in vitro SUMOylation cascade, primary screen, biochemical, HTRF, uHTS (AID 2006); type: protein-complex assay
Cytochrome P450 3A4 = Cytochrome P450 3A4 (Homo sapiens, UniProt P08684);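 also: CYP3A4 tested as one member of a cytochrome P450 panel screen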
Escherichia coli = assay: microbe, parasite or virus in culture
[6] = biological target: T4, E3 ubiquitin-protein ligase XIAP (Homo sapiens, UniProt P98170); assay: SAR analysis of Antagonists of IAP-family anti-apoptotic proteins. [Related pubchem assays (depositor defined):AID1018, AID1449, AID1513, AID1514, AID1638]
T4 sequence (P98170 whole entry, the tested form may be a part): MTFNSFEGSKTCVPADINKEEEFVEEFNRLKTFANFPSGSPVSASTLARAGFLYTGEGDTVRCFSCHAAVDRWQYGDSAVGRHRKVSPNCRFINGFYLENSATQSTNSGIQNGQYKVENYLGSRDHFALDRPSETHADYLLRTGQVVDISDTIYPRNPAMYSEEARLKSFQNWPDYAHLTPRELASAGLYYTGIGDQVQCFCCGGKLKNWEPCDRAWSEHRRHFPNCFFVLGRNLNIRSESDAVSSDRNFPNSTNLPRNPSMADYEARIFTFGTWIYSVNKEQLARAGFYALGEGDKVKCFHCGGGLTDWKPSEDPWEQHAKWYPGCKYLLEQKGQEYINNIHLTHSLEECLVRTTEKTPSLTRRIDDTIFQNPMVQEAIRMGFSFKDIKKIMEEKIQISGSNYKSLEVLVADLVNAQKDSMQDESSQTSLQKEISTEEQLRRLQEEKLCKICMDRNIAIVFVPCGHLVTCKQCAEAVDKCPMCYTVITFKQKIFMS

[7] = biological target: T4, E3 ubiquitin-protein ligase XIAP; assay: SAR analysis of Antagonists of XIAP-Bir3 domain of IAP-family anti-apoptotic proteins. [Related pubchem assays (depositor defined):AID1018, AID1449, AID1513, AID1514, AID1638]
cells [8] = type: functional, cell-based
Nonstructural protein 1 = Nonstructural protein 1 (Influenza A virus, UniProt Q194T2); type: functional, Influenza A virus (A/California/07/2009(H1N1))
Sequence of Nonstructural protein 1 (Q194T2 whole entry): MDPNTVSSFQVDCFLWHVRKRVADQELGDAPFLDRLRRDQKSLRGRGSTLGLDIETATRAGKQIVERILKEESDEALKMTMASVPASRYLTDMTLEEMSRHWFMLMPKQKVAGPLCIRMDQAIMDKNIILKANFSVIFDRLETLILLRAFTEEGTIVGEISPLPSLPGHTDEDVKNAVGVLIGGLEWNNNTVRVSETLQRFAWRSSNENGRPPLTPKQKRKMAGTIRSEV

cells [9] = type: functional, cell-based; remark: listed apart in the source
[10] = biological target: Intestinal-type alkaline phosphatase (Homo sapiens, UniProt P09923); assay: inhibition of human intestinal alkaline phosphatase – biochemical, dose response (AID 488876); type: functional
Sequence of Intestinal-type alkaline phosphatase (Homo sapiens, UniProt P09923) (P09923 whole entry): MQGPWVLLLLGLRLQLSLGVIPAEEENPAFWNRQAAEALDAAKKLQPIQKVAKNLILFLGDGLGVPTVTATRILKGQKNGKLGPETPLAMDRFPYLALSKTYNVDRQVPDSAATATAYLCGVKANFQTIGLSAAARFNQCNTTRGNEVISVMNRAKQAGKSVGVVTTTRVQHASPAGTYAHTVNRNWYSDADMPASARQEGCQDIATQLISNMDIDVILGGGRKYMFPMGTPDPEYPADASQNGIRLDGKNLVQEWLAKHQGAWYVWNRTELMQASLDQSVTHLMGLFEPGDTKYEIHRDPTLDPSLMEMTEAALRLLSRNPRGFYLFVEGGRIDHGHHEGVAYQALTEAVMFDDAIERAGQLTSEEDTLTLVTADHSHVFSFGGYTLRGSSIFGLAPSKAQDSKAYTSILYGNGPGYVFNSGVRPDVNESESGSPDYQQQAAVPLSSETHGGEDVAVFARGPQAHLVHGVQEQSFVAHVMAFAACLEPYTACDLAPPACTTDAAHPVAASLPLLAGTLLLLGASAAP

[11] = biological target: T5, Alkaline phosphatase, tissue-nonspecific isozyme (Homo sapiens, UniProt P05186); assay: TNAP enzyme inhibition by screening hits, dose response, selectivity assay for mouse IAP inhibitor project, biochemical, human TNAP, uHTS hits (AID 488906); type: functional
T5 sequence (P05186 whole entry): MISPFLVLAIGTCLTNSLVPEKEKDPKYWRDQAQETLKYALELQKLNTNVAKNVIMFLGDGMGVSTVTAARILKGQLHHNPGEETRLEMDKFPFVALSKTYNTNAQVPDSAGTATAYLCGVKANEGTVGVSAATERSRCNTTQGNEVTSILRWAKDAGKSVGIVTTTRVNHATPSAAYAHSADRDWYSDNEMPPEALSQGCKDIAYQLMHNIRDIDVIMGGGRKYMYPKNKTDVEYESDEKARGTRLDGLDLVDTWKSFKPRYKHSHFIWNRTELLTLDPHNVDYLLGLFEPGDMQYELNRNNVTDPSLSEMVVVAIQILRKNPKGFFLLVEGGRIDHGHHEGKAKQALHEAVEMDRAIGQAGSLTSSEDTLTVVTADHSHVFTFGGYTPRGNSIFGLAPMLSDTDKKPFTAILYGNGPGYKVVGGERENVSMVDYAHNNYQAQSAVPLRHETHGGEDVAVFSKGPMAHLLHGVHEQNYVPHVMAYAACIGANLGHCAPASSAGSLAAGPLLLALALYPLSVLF

[12] = biological target: T6, Histone-lysine N-methyltransferase NSD2 (Homo sapiens, UniProt O96028); type: biochemical
T6 sequence (O96028 whole entry): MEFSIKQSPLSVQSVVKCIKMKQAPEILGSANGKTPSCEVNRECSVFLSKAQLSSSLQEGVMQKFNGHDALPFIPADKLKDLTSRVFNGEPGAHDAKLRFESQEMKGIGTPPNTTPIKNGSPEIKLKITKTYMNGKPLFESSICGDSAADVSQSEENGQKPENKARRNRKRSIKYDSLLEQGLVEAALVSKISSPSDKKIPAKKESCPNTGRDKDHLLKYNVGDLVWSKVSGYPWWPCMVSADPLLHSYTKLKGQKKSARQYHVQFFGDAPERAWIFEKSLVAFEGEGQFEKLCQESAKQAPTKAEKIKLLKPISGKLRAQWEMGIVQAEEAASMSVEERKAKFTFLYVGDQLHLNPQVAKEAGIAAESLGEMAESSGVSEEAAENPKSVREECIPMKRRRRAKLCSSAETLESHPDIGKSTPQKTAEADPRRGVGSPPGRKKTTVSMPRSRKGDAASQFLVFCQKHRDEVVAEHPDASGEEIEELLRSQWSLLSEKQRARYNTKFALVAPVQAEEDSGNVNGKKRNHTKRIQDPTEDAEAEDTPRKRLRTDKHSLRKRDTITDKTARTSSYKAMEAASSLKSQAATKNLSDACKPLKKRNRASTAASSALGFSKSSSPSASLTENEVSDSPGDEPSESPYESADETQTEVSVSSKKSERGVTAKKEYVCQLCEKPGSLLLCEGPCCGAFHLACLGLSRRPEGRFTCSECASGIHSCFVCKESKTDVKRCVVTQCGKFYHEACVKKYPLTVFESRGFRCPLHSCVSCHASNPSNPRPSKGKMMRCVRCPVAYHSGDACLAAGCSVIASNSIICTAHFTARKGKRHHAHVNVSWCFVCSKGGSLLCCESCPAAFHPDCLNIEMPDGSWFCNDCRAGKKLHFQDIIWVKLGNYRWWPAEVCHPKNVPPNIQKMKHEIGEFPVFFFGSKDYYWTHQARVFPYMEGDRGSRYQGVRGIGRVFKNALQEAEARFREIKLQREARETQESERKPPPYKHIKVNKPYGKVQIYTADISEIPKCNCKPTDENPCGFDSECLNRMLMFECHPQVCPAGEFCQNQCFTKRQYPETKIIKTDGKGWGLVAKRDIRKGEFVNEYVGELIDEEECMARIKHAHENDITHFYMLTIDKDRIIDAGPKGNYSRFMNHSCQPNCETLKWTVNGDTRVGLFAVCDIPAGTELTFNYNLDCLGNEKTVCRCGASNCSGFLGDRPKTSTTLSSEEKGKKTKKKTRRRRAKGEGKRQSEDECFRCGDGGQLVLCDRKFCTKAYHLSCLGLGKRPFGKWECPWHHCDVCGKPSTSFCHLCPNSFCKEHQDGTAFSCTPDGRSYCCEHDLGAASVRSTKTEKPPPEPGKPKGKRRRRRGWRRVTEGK

[13] = biological target: Intestinal-type alkaline phosphatase (Mus musculus, UniProt P24822); assay: PubChem AID 488785; type: functional
Sequence of Intestinal-type alkaline phosphatase (Mus musculus, UniProt P24822) (P24822 whole entry): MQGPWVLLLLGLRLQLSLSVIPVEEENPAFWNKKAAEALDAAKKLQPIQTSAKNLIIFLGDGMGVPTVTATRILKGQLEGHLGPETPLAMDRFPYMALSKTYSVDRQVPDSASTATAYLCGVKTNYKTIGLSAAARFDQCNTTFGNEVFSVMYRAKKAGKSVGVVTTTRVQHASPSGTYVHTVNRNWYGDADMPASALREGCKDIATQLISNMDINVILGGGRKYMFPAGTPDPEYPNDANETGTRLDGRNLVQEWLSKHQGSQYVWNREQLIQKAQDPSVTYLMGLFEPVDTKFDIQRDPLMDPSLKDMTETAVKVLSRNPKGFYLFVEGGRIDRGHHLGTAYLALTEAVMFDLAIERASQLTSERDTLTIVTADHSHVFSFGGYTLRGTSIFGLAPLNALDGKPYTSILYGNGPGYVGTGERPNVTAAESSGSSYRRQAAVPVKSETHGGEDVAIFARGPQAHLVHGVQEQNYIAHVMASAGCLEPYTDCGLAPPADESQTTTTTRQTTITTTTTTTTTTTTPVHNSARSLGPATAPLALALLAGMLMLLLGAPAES

## c1ccc(-c2ccccc2OCCOCCN2CCc3ccccc3C2)cc1
[1]
  IC50: 2.55 µM (active)
[2]
  IC50: 3.85 µM (active)

## Cc1cccc(NC(=O)C2CC3CCC2C3)c1C (stereo not given)
[3]
  EC50: 1 µM (active)

## CC(/C=C1\SC(=S)N(C(C(=O)O)c2ccccc2)C1=O)=C\c1ccccc1 (stereo not given)
SUMO-activating enzyme [4]
  IC50: 10.9 µM (active)
Aminopeptidase N
  IC50: 12.4 µM (active)
Genome polyprotein
  IC50: 38.5 µM (active)
Aspartyl aminopeptidase
  IC50: > 73.5 µM (not active)
Procathepsin L
  IC50: > 59.6 µM (not active)
SUMO-activating enzyme [5]
  IC50: 26.8 µM (active)

## O=C(c1ccccc1)c1ccc(OCC(O)CN2CCN(Cc3ccccc3)CC2)cc1 (stereo not given)
Cytochrome P450 3A4
  AC50: inconclusive

## COC(=O)CN1C(=O)N/C(=C/c2ccccc2OC)C1=O
Escherichia coli
  AC50: 60.7 µM (active)

## CN[C@@H](C)C(=O)N[C@H](C(=O)N[C@@H](C)C(=O)Nc1cccc2ncccc12)C(C)C
[6]
  IC50: > 100 µM (inactive)
[7]
  IC50: > 100 µM (inactive)

## Cc1cc(NC(c2cccnc2)c2ccc3cccnc3c2O)no1 (stereo not given)
[1]
  IC50: 3.53 µM (active)
Cells [8]
  EC50: 11.9 µM (active)
Nonstructural protein 1
  IC50: 7.09 µM (active)
[2]
  IC50: 3.65 µM (active)
Cells [9]
  EC50: > 350 µM (not active)

## CC(C)[C@H](NC(=O)[C@H](C)N)C(=O)N[C@@H](C)C(=O)Nc1cccc2ccccc12
[6]
  IC50: 1.8 µM (active)
[7]
  IC50: 103 µM (active)

## Cc1ccc(NC(=O)C2CC3CCC2C3)cc1 (stereo not given)
[3]
  EC50: 0.75 µM (active)

## O=C(CSc1nc2nn(-c3ccccc3)c(=O)c-2c2n1CCCCC2)c1ccc(O)c(O)c1
[10]
  IC50: > 100 µM (inactive)
[11]
  IC50: > 100 µM (inactive)
[12]
  AC50: 2.62 µM (active)
[13]
  IC50: 9.04 µM (active)
